Literature values as cited in US20110319467A1, “Absorption Enhancement of Statins and Omega Fatty Acids” (priority 2010, published 2011).

Conditions: single emulsifier

HLB value: about 15
Substance: Polyoxyethylene sorbitan monooleate
